# Calls of active or inactive are those of the source. No cut-off for these calls is given here.
# Legend:
# [1] = tested on: MCF7; assay: Antiproliferative activity against human MCF7 cells after 72 hrs by MTS assay; assay type: functional, cell-based; settings: MCF7, 72 h
# [2] = tested on: SK-BR-3; assay: Antiproliferative activity against human SKBR3 cells after 72 hrs by MTS assay; assay type: functional, cell-based; settings: SK-BR-3, 72 h
# [3] = tested on: SK-BR-3; assay: Ratio of IC50 for compound to IC50 for novobiocin for human SKBR3 cells; assay type: functional
# [4] = molecular target: Heat shock protein HSP 90-beta (Homo sapiens) (UniProt P08238); assay: Inhibition of HSP90 in human MCF7 cells assessed as Raf degradation at 0.5 to 7.5 uM after 24 hrs by Western blot analysis; assay type: cell-based
# Heat shock protein HSP 90-beta (Homo sapiens), sequence (P08238 whole entry): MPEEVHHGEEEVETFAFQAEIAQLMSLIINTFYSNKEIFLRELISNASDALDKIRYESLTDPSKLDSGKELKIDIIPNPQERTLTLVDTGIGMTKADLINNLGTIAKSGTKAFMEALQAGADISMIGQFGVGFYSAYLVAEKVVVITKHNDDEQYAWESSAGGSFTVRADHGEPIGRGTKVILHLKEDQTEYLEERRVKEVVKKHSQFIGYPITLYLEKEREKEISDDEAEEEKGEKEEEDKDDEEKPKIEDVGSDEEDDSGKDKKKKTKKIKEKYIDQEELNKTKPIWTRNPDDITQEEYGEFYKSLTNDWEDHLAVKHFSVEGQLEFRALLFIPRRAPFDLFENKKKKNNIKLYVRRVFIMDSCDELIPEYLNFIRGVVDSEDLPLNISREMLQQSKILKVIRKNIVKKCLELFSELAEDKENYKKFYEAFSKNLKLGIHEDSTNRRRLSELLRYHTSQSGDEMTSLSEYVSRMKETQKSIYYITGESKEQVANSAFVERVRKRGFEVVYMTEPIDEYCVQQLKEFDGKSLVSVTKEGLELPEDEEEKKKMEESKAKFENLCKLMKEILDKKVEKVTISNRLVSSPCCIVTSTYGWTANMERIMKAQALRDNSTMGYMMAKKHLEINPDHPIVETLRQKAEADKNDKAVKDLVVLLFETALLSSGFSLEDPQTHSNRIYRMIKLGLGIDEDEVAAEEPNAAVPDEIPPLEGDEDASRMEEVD
# [5] = molecular target: Heat shock protein HSP 90-beta (Homo sapiens) (UniProt P08238); assay: Inhibition of HSP90 in human MCF7 cells assessed as Akt degradation at 0.5 to 7.5 uM after 24 hrs by Western blot analysis; assay type: cell-based
# [6] = molecular target: Heat shock protein HSP 90-beta (Homo sapiens) (UniProt P08238); assay: Inhibition of HSP90 in human MCF7 cells assessed as Raf degradation after 24 hrs by Western blot analysis; assay type: cell-based
# [7] = molecular target: Heat shock protein HSP 90-beta (Homo sapiens) (UniProt P08238); assay: Inhibition of HSP90 in human MCF7 cells assessed as Her2 degradation at 0.5 to 7.5 uM after 24 hrs by Western blot analysis; assay type: cell-based
# [8] = molecular target: Heat shock protein HSP 90-beta (Homo sapiens) (UniProt P08238); assay: Inhibition of HSP90 in human MCF7 cells assessed as Her2 degradation at after 24 hrs by Western blot analysis; assay type: cell-based
# [9] = molecular target: Heat shock protein HSP 90-beta (Homo sapiens) (UniProt P08238); assay: Inhibition of HSP90 in human MCF7 cells assessed as Akt degradation after 24 hrs by Western blot analysis; assay type: cell-based
# [10] = tested on: SK-BR-3; assay: Ratio of IC50 for compound to IC50 for DHN2 for human SKBR3 cells; assay type: functional
# [11] = molecular target: Heat shock protein HSP 90-beta (Homo sapiens) (UniProt P08238); assay: Inhibition of HSP90 in human MCF7 cells assessed as Akt degradation at 0.5 to 100 uM after 24 hrs by Western blot analysis; assay type: cell-based
# [12] = molecular target: Heat shock protein HSP 90-beta (Homo sapiens) (UniProt P08238); assay: Inhibition of HSP90 in human MCF7 cells assessed as Raf degradation at 0.5 to 100 uM after 24 hrs by Western blot analysis; assay type: cell-based
# [13] = tested on: MCF7; assay: Ratio of IC50 for compound to IC50 for novobiocin for human MCF7 cells; assay type: functional
# [14] = molecular target: Heat shock protein HSP 90-beta (Homo sapiens) (UniProt P08238); assay: Inhibition of HSP90 in human MCF7 cells assessed as Her2 degradation at 0.5 to 100 uM after 24 hrs by Western blot analysis; assay type: cell-based
structure (smiles),measurement,setting,value
CNCCOc1ccc2cc(NC(=O)c3ccc(O)c(CC=C(C)C)c3)c(=O)oc2c1C,IC50,[1],1330 nM
same,IC50,[2],750 nM
CC(=O)Oc1ccc(C(=O)Nc2cc3ccc(OC4CCCNC4)c(C)c3oc2=O)cc1CC=C(C)C (stereo unspecified),IC50,[1],1540 nM
same,IC50,[2],1230 nM
CC(C)=CCc1cc(C(=O)Nc2cc3ccc(OC4CCCNC4)c(C)c3oc2=O)ccc1O (stereo unspecified),IC50,[1],1680 nM
same,IC50,[2],790 nM
CC(C)=CCc1cc(C(=O)Nc2cc3ccc(O[C@@H]4C[C@H](O)CO4)c(C)c3oc2=O)ccc1O,IC50,[1],> 100000 nM
same,IC50,[2],22200 nM
same,Ratio IC50,[3],1500
CC(C)=CCc1cc(C(=O)Nc2cc3ccc(OC4CCNCC4)c(C)c3oc2=O)ccc1O,inhibition,[4],Active
same,inhibition,[5],Active
same,IC50,[1],850 nM
same,IC50,[2],470 nM
same,inhibition,[6],Dose-dependent effect
same,inhibition,[7],Active
same,inhibition,[8],Dose-dependent effect
same,inhibition,[9],Dose-dependent effect
CC(=O)Oc1ccc(C(=O)Nc2cc3ccc(OC4CCNCC4)c(C)c3oc2=O)cc1CC=C(C)C,IC50,[1],1530 nM
same,IC50,[2],560 nM
CC(C)=CCc1cc(C(=O)Nc2cc3ccc(OC4CCN(C)CC4)c(C)c3oc2=O)ccc1O,IC50,[1],1090 nM
CC(=O)Oc1ccc(C(=O)Nc2cc3ccc(OCCN(C)C)c(C)c3oc2=O)cc1CC=C(C)C,IC50,[1],4760 nM
same,IC50,[2],1320 nM
CC(=O)Oc1ccc(C(=O)Nc2cc3ccc(OC4CCN(C)CC4)c(C)c3oc2=O)cc1CC=C(C)C,IC50,[1],1180 nM
same,IC50,[2],580 nM
CNCCOc1ccc2cc(NC(=O)c3ccc(OC(C)=O)c(CC=C(C)C)c3)c(=O)oc2c1C,IC50,[1],2080 nM
same,IC50,[2],910 nM
CC(C)=CCc1cc(C(=O)Nc2cc3ccc(O[C@@H]4C[C@H](O)CCO4)c(C)c3oc2=O)ccc1O,IC50,[1],1340 nM
same,IC50,[2],5070 nM
same,Ratio IC50,[3],1500
CC(C)=CCc1cc(C(=O)Nc2cc3ccc(OC4CCCN(C)C4)c(C)c3oc2=O)ccc1O (stereo unspecified),IC50,[1],10100 nM
same,IC50,[2],4690 nM
CC(C)=CCc1cc(C(=O)Nc2cc3ccc(O[C@H]4C[C@H](O)CO4)c(C)c3oc2=O)ccc1O,IC50,[1],22500 nM
same,IC50,[2],21500 nM
same,Ratio IC50,[3],1500
CC(C)=CCc1cc(C(=O)Nc2cc3ccc(O[C@H]4OCC[C@@H](O)[C@H]4O)c(C)c3oc2=O)ccc1O,IC50,[1],10000 nM
same,IC50,[2],10700 nM
same,Ratio IC50,[3],1500
CC(C)=CCc1cc(C(=O)Nc2cc3ccc(OCCCN(C)C)c(C)c3oc2=O)ccc1O,IC50,[1],1350 nM
same,IC50,[2],440 nM
CC(C)=CCc1cc(C(=O)Nc2cc3ccc(O[C@@H]4OCCC[C@H]4O)c(C)c3oc2=O)ccc1O,IC50,[1],10200 nM
same,IC50,[2],30000 nM
same,Ratio IC50,[3],1500
CC(C)=CCc1cc(C(=O)Nc2cc3ccc(O[C@@H]4OC[C@@H](O)[C@H]4O)c(C)c3oc2=O)ccc1O,IC50,[1],14300 nM
same,IC50,[2],14400 nM
same,Ratio IC50,[3],1500
CC(C)=CCc1cc(C(=O)Nc2cc3ccc(O[C@@H]4OCC[C@@H](O)[C@H]4O)c(C)c3oc2=O)ccc1O,IC50,[1],13300 nM
same,IC50,[2],6960 nM
same,Ratio IC50,[3],1500
CC(C)=CCc1cc(C(=O)Nc2cc3ccc(O[C@H]4C[C@H](O)CCO4)c(C)c3oc2=O)ccc1O,Ratio IC50,[10],3
same,IC50,[1],1560 nM
same,IC50,[2],3110 nM
same,inhibition,[6],Dose-dependent effect
same,inhibition,[11],Active
same,inhibition,[12],Active
same,Ratio IC50,[3],200
same,Ratio IC50,[13],200
same,inhibition,[14],Active
same,inhibition,[8],Dose-dependent effect
same,inhibition,[9],Dose-dependent effect
CC(=O)Oc1ccc(C(=O)Nc2cc3ccc(OCCCN(C)C)c(C)c3oc2=O)cc1CC=C(C)C,IC50,[1],1180 nM
same,IC50,[2],460 nM
CC(C)=CCc1cc(C(=O)Nc2cc3ccc(OCCN(C)C)c(C)c3oc2=O)ccc1O,IC50,[1],13500 nM
same,IC50,[2],9450 nM
CC(C)=CCc1cc(C(=O)Nc2cc3ccc(O[C@H]4OCCC[C@H]4O)c(C)c3oc2=O)ccc1O,IC50,[1],6450 nM
same,IC50,[2],7870 nM
same,Ratio IC50,[3],1500
CO[C@@H]1[C@@H](O)[C@@H](O)[C@H](Oc2ccc3cc(NC(=O)c4ccc(O)c(CC=C(C)C)c4)c(=O)oc3c2C)OC1(C)C,IC50,[1],11300 nM
same,IC50,[2],10900 nM
same,Ratio IC50,[3],1500
CC(=O)Oc1ccc(C(=O)Nc2cc3ccc(OC4CCCN(C)C4)c(C)c3oc2=O)cc1CC=C(C)C (stereo unspecified),IC50,[1],1570 nM
same,IC50,[2],1420 nM

# — ChEMBL document CHEMBL1773008 (ACS Med Chem Lett, 2010)
